Data: patent US20050019258A1, “Compound testing method” (priority 2003, published 2005)
Like-named read-outs stand apart in the source and are kept apart here.

How the values were obtained:
[1] = test system: patients with detrusor hyperreflexia; conditions: 13 patients positive at baseline, cited from earlier work
guinea-pig bladder [2] = assay: Ice-water test (IWT) in anaesthetised guinea-pig bladder, effect of RTX treatment; format: in vivo
Experimental: (§1) Anaesthesia was induced in female Dunkin-Hartley guinea-pigs (326-416 g) by exposure to 4% halothane in oxygen. A surgical level of anaesthesia was then obtained by administration of 1.2 g/kg i.p. urethane followed by 40 mg/kg α-chloralose via a catheterised jugular vein. Supplementary doses of urethane (0.05 g/kg i.v.) were given if required. Rectal temperature was maintained between 36.5 and 37° C. via a Harvard homeothermic blanket control unit and additional heating lamp. […] The trachea was cannulated and the animals artificially respired using an Ugo-Basile rodent ventilator. A carotid arterial blood sample (0.3 ml) was analysed for blood gases using a GEM Premier 3000 analyser and the ventilation volume adjusted, with air intake enriched with O2 if necessary, to set the level of blood PO2>70 mmHg, PCO2<40 mmHg and pH between 7.36 and 7.46.
(§2) The urinary bladder was exposed via a midline laparotomy and a double lumen catheter inserted into the lumen through an incision in the dome. The catheter was tied in place below the flanged tip of the outer tubing, followed by closure of the abdominal incision. […] The amplified EUS electromyogram (EUS EMG), the integrated EUS EMG and bladder pressure signals were recorded using Spike2 software (Cambridge Electronic Design). […]

bladder cooling reflex [3] = conditions: 0.6 mM menthol in cats; cited from earlier work
guinea-pig bladder [4] = assay: Ice-water test (IWT) in anaesthetised guinea-pig bladder, effect of menthol; format: in vivo
Experimental: as §1, §2

bladder cooling reflex [5] = conditions: 0.5 mM menthol in patients; cited from earlier work

SMILES	additional patients in whom IWT became negative ([1]; at 14 days, 50 or 100 nM RTX)	number of cases with negative IWT ([1]; at 90 days post treatment, 50 or 100 nM RTX) [cases]	number of patients in whom IWT became negative ([1]; immediately after instillation of 50 or 100 nM RTX) [patients]	desensitisation of the 3° C. induced reduction in TV (guinea-pig bladder [2]; 500 nM RTX infused into bladder)	difference of TV to 3° C. vs TV for 38° C. control response before RTX (guinea-pig bladder [2]; 500 nM RTX, 100 min post RTX infusion, 95% C.I. −0.51, 0.20, p>0.05)	effect on bladder cooling reflex (shift of threshold temperature towards higher temperatures) (bladder cooling reflex [3])	threshold volume (TV) for micturition at 3° C. following menthol treatment (guinea-pig bladder [4]; 0.6 mM menthol infused into bladder, 3° C. saline infusion, TV before menthol 1.90 ml, n=4) [mL]	difference in TV at 3° C. after menthol vs before menthol (guinea-pig bladder [4]; 0.6 mM menthol, 95% C.I. −1.33, −0.57, p<0.001)	effect on bladder cooling reflex (shift of threshold temperature towards higher temperatures) (bladder cooling reflex [5])
C=C(C)[C@]12C[C@@H](C)[C@@]34O[C@](Cc5ccccc5)(O[C@@H]1[C@@H]3C=C(COC(=O)Cc1ccc(O)c(OC)c1)C[C@]1(O)C(=O)C(C)=C[C@@H]41)O2 [RTX, resiniferatoxin]	2	8	4	Desensitisation	−0.16	–	–	–	–
CC1CCC(C(C)C)C(O)C1 (stereo not drawn) [menthol]	–	–	–	–	–	Potentiation of the bladder cooling reflex	0.95	−0.95	Potentiation of the bladder cooling reflex
